Here are results for five molecules from patent US7374920B2, “Ginkgo biloba levopimaradiene synthase” (priority 2001, dated 2008).

Entries after “also recorded” stand apart in the source; their conditions may differ.

In test [1] the test system is G. biloba seedlings, plants, and trees. The note with it: cited from earlier work; for effect on diterpenoid content: cycloartenol synthase inhibitors (Huh, et al., 1993).
A further test has as its target T1, Levopimaradiene synthase (Ginkgo biloba, UniProt Q947C4).
T1 construct: thioredoxin (from pET32c(+)); made in house; host or cells: E. coli BL21(DE3), soluble fraction of the lysate
T1 sequence (Q947C4 60-873): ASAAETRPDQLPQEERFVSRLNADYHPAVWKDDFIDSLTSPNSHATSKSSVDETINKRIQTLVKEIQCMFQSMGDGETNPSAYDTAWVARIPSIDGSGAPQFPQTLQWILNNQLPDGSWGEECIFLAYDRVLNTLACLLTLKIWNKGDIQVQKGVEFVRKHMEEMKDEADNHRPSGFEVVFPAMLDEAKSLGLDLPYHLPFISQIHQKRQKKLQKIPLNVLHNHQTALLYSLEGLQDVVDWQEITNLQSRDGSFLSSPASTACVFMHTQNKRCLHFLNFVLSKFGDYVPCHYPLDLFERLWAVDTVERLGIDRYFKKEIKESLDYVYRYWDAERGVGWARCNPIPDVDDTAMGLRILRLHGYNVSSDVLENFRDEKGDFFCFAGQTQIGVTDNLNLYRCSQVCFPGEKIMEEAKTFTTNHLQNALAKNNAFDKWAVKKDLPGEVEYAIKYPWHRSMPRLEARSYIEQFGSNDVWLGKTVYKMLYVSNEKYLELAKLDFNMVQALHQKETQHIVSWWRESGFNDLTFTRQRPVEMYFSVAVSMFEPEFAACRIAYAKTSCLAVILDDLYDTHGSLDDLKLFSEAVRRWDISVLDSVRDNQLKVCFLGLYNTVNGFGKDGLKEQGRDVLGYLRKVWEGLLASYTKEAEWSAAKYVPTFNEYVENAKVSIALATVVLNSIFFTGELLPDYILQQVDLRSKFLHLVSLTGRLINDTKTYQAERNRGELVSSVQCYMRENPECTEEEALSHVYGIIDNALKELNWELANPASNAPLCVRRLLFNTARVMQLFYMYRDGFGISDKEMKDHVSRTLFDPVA
Description: levopimaradiene synthase activity towards geranyl diphosphate and farnesyl diphosphate. It is filed as biochemical. The note with it: E. coli expression, 200 μM substrate, overnight at 32° C., GC or GC/MS. Here is the method:
Levopimaradiene synthase was also tested for activity towards 200 μM geranyl diphosphate and farnesyl diphosphate. Cell cultures were induced and lysed as noted above. The soluble fraction of the lysate was incubated overnight at 32° C. with 200 μM substrate in 30 mM HEPES, pH 7.2, 5 mM DTT, 5% glycerol, 2 mM MgCl2 and 500 μM MnCl2, and overlaid with hexane (1 mL).
(§1) All in vitro reactions were extracted 3× with hexane and dried over MgSO4. The reaction was further extracted twice with diethyl ether and dried over MgSO4. Thereafter, the crude lysate was suspended in 100 mM Tris, pH 8.0 containing 2.9 units/mg apyrase (a dephosphorylating agent) and 10 units/μL calf intestinal alkaline phosphatase, incubated at 30° C. for 3 hours, and extracted with diethyl ether as noted above (Croteau and Cane, 1985). The crude reaction mixtures were eluted over SiO2, concentrated, and analyzed by GC and GC/MS.
Gas chromatography spectra were obtained on a Hewlett Packard 6890 Series GC System equipped with an Rtx-5 capillary column (Restek, 30 m×0.25 mm i.d., 0.10 μm df). The following separation conditions and temperature program were employed: injector port 250° C., FID 250° C., split ratio 39:1, helium flow 20 cm/s (0.6 mL/min), 150° C. hold 5 min, increase to 250° C. (5° C./min), hold 5 min. […]

The nature of test [2]: in vitro enzymatic assay of levopimaradiene synthase constructs expressed in E. coli BL21(DE3). Particulars: E. coli BL21(DE3), soluble lysate fraction, 20 μM GGDP, overnight at 32° C., GC and GC/MS. It is filed as biochemical, Escherichia coli. Here is the method: The desired plasmids were prepared by ligating the mutated gene insert into the similarly digested vectors pET32c(+) (Novagen; Madison, Wis.) and pRS426GAL (Hua, 2000), a multiple copy yeast expression vector. These plasmids was expressed in E. coli BL21(DE3) (Novagen; Madison, Wis.). E. coli cells were grown in Luria-Bertani medium supplemented with 100 μg/mL ampicillin at 37° C. with shaking to OD600 ˜0.6. The following parameters were tested: isopropyl 1-thio-β-D-galactopyranoside (IPTG) concentration (50, 100, 250, 500, and 1000 μM); and temperature and time (20° C. for 2, 3, 4, 6, 21 hours, 22° C. for 6, 8, 16, 19, 22, 45 hours, and 30° C. for 3, 6 hours). The following assay conditions were tested to obtain maximum diterpene product yield: 30 mM HEPES (N-2-hydroxyethylpiperazine-N′-[…]), pH 6.9, 7.2, 7.6, 8.0; 30 mM Tris (tris(hydroxymethyl)aminomethane hydrochloride), pH 7.4, 7.8, 8.2; 1, 5, 10% glycerol; 1, 3, 5, 10, 20 mM DTT (dithiothreitol); 20 mM β-mercaptoethanol; 2, 5, 8% Triton X-100; 5% Tween 80; 0, 2, 7.5, 20, 50 mM MgCl2; 0, 30, 500, 1000 μM MnCl2; 2, 10, 13.3, 20, 40, 80, 200 μM GGDP; and 23° C. and 32° C. assay temperatures.
Optimal soluble protein production and diterpene yield were obtained with the following conditions. Cell cultures were induced with 1 mM IPTG at 20° C. with shaking for 6 hours and lysed by sonication in 30 mM HEPES, pH 7.2, 5 mM DTT, and 5% glycerol. The soluble fraction of the lysate (100 mg/mL) was incubated with 20 μM GGDP in 30 mM HEPES, pH 7.2, 5 mM DTT, 5% glycerol, 2 mM MgCl2, and 500 μM MnCl2 overnight at 32° C.
as §1
(§2) Gas chromatography spectra were obtained on a Hewlett Packard 6890 Series GC System equipped with an Rtx-5 capillary column (Restek, 30 m×0.25 mm i.d., 0.10 μm df). The following separation conditions and temperature program were employed: injector port 250° C., FID 250° C., split ratio 39:1, helium flow 20 cm/s (0.6 mL/min), 150° C. hold 5 min, increase to 250° C. (5° C./min), hold 5 min. GC/MS spectra were obtained on a Hewlett-Packard 5890A instrument with a 30-m DB-5 ms column (J&W Scientific Inc., 0.25 mm i.d., 0.10 μm df). The following separation conditions and temperature program were employed: injector port 280° C., transfer lines: 280° C., helium flow at 30 cm/s (1 mL/min) with splitless injection at 150° C. hold 3 min, increase to 250° C. (5° C./min), hold 5 min. Mass spectra (m/z 50 to 500) were obtained on a VG ZAB-HF reverse-geometry double-focusing instrument at 70 eV with an electron-impact ion source (200° C.). Accelerating voltage was set to 8 kV and the resolution was 1000 (10% valley).
The skilled artisan recognizes that lysis and assay conditions should be optimized. Examples of parameters that can be adjusted to optimize conditions include altering buffer, pH, reductant, reductant concentration, metal cofactors, cofactor concentrations, glycerol concentrations, substrate concentrations, and assay temperatures. […] Maximum soluble protein production and diterpene yield were obtained with the following conditions. Cell cultures were induced with 1 mM IPTG at 20° C. with shaking for 6 hours and lysed by sonication in 30 mM HEPES, pH 7.2, 5 mM DTT, and 5% glycerol. The soluble fraction of the lysate (100 mg/1 mL) was incubated with 20 μM GGDP in 30 mM HEPES, pH 7.2, 5 mM DTT, 5% glycerol, 2 mM MgCl2, and 500 μM MnCl2 overnight at 32° C. […]

The nature of test [3]: in vitro assay of levopimaradiene synthase constructs expressed in wild-type S. cerevisiae JBY575. The test is classed as biochemical, Saccharomyces cerevisiae. Particulars: wild-type S. cerevisiae JBY575, galactose 48 hours, lysate with GGDP. The protocol:
Expression in S. cerevisiae JBY575, which represents wild-type yeast, was observed. JBY575 cells transformed with pRS426GAL inserted with the putative levopimaradiene synthase were grown in synthetic complete medium lacking uracil and supplemented with 2% glucose and 1.5% agar at 30° C. to saturation and induced with galactose for 48 hours. Cells were harvested, resuspended in lysis buffer, and mixed by vortexing over glass beads. The lysate was assayed with 60 μM GGDP in the presence and absence of 0.2% and 5% Triton X-100.
as §1, §2
The skilled artisan recognizes that lysis and assay conditions should be optimized. Examples of parameters that can be adjusted to optimize conditions include altering buffer, pH, reductant, reductant concentration, metal cofactors, cofactor concentrations, glycerol concentrations, substrate concentrations, and assay temperatures. […] Maximum soluble protein production and diterpene yield were obtained with the following conditions. Cell cultures were induced with 1 mM IPTG at 20° C. with shaking for 6 hours and lysed by sonication in 30 mM HEPES, pH 7.2, 5 mM DTT, and 5% glycerol. The soluble fraction of the lysate (100 mg/1 mL) was incubated with 20 μM GGDP in 30 mM HEPES, pH 7.2, 5 mM DTT, 5% glycerol, 2 mM MgCl2, and 500 μM MnCl2 overnight at 32° C. Yeast expression was induced with galactose at 30° C. for 48 hours and the cells were lysed and assayed according to the conditions noted.

The subject of the next test is EHY18 yeast cells. Description: in vivo expression of GbLS constructs in yeast strain EHY18 that accumulates GGDP, GC quantitation of products. The test is classed as cell-based. The note with it: GC, GC/MS. The protocol: The yeast strain of the copending application employed was EHY18 (Hart, E., 2001) which was further transformed with multiple-copy yeast expression vectors comprising an isolated and purified nucleic acid sequence of GbLS or derivatives thereof, which are described herein under control of the GAL1 inducible promoter. Yeast cells were grown to saturation in 5 mL ScD-Leu-Ura at 30° C. Cells were harvested (1300×g, 2 min, 25° C.) and resuspended in 500 μL sterile Milli-Q H2O (2×). The washed cells were resuspended in 5 mL sterile Milli-Q H2O. An aliquot of the culture (5 μL) was added to a 25 mL Corex tube containing pre-prepared 2× resin and 5 mL ScG-Leu-Ura (4% galactose) and shaken at 30° C. for 6 days. Resin was collected by filtration through a Kontes chromatography column (1.7 cm diameter) and rinsed with dI H2O until eluent was clear. The resin was incubated in 2 mL ethanol for several minutes, eluted, and repeated 2×. The combined eluents were dissolved in approximately 3 mL dI H2O and extracted (3×) with 3 mL hexane. The combined extracts were concentrated under a stream of nitrogen. GC analysis (quantitation extrapolated from 0.2 mg/mL longifolene external standard) indicated the following product profile (obtained from triplicate measurement of three cultures): 0.61±0.20 mg/L levopimaradiene, 0.04±0.01 mg/L abietadiene, 0.15±0.05 mg/L abietatriene, 0.16±0.13 mg/L (+)-copalol, and 1.79±0.90 mg/L geranylgeraniol. GC/MS fragmentation confirmed the identity of each compound.
A large scale culture (1-L) was prepared by growing the yeast cells to saturation in 5 mL ScD-Leu-Ura at 30° C. Cells were harvested (1300×g, 2 min, 25° C.) and resuspended in 500 μL sterile Milli-Q H2O (2×). The washed cells were resuspended in 5 mL sterile Milli-Q H2O. An aliquot of the culture (1 mL) was added to a 2 L flask containing 1-L ScG-Leu-Ura (4% galactose) and 88.27 g resin in 120 mL Milli-Q H2O (pre-prepared). The resin was eluted with ethanol (3×100 mL with 20 min incubation periods), which was subsequently extracted (6×) with hexane. The combined extracts were dried over magnesium sulfate, filtered, and concentrated under reduced pressure. GC analysis (quantitation extrapolated from 0.2 mg/mL longifolene external standard) indicated the following product profile (obtained from triplicate measurement): 0.29±0.04 mg/L levopimaradiene, 0.04±0.02 mg/L abietadiene, 0.13±0.04 mg/L abietatriene, 0.11±0.02 mg/L (+)-copalol, and 0.56±0.03 mg/L geranylgeraniol. GC/MS analyses confirmed the production of the above noted diterpenes, which included hydrocarbons and an alcohol.
Further optimization studies employed the Ser61 construct. Factors influencing diterpene production included induction period and concentration of galactose and resin in the inducing medium.

`Cc1cc(OC(=O)N2CCCCC2)c(C(C)C)cc1[N+](C)(C)C.[Cl-]` [AMO-1618]: the “effect on diterpenoid content” value in test [1] is “Variable results”.

Consider `COc1ccc(C(O)(c2cncnc2)C2CC2)cc1` (stereo not shown) [ancymidol], for which, in test [1], the “effect on diterpenoid content” value is reported as “Variable results”.

With `CC(C)=CCC/C(C)=C/COP(=O)(O)OP(=O)(O)O` [geranyl diphosphate], the “terpene formation from alternative substrate” value at Levopimaradiene synthase is listed as “did not produce any identifiable terpenes”.

Regarding fluridone, the increase in ginkgolides result in test [1] (application to G. biloba (Huh, et al., 1993)) is on record as “up to 78%”.

B1: Phe^129: Ginkgo biloba levopimaradiene synthase truncated at Cys^127-Met^128, referred to as Phe^129; SEQ.ID.NO:39 (protein, listed as Ginkgo biloba)
chain: MFQSMGDGETNPSAYDTAWVARIPSIDGSGAPQFPQTLQWILNNQLPDGSWGEECIFLAYDRVLNTLACLLTLKIWNKGDIQVQKGVEFVRKHMEEMKDEADNHRPSGFEVVFPAMLDEAKSLGLDLPYHLPFISQIHQKRQKKLQKIPLNVLHNHQTALLYSLEGLQDVVDWQEITNLQSRDGSFLSSPASTACVFMHTQNKRCLHFLNFVLSKFGDYVPCHYPLDLFERLWAVDTVERLGIDRYFKKEIKESLDYVYRYWDAERGVGWARCNPIPDVDDTAMGLRILRLHGYNVSSDVLENFRDEKGDFFCFAGQTQIGVTDNLNLYRCSQVCFPGEKIMEEAKTFTTNHLQNALAKNNAFDKWAVKKDLPGEVEYAIKYPWHRSMPRLEARSYIEQFGSNDVWLGKTVYKMLYVSNEKYLELAKLDFNMVQALHQKETQHIVSWWRESGFNDLTFTRQRPVEMYFSVAVSMFEPEFAACRIAYAKTSCLAVILDDLYDTHGSLDDLKLFSEAVRRWDISVLDSVRDNQLKVCFLGLYNTVNGFGKDGLKEQGRDVLGYLRKVWEGLLASYTKEAEWSAAKYVPTFNEYVENAKVSIALATVVLNSIFFTGELLPDYILQQVDLRSKFLHLVSLTGRLINDTKTYQAERNRGELVSSVQCYMRENPECTEEEALSHVYGIIDNALKELNWELANPASNAPLCVRRLLFNTARVMQLFYMYRDGFGISDKEMKDHVSRTLFDPVA
B1: the “diterpene product on bacterial expression” value in test [2] is recorded as “failed to produce detectable levels of any diterpene; also recorded: complete loss of enzymatic activity”. For the same molecule, in test [3], the “diterpene product on yeast expression” value is recorded as “failed to produce observable levels of any diterpene product; also recorded: failed to produce detectable levels of biosynthetic product”. Also, the “diterpene products on expression in EHY18” value in the test on EHY18 yeast cells is “no diterpene alcohol or hydrocarbon formation”.
